“Also recorded” adds a separate entry of the source.
Test system: fibroblasts
Experiment: Fibroblast attachment to tresylated titanium wire grafted with P-15
Format: cell-based
Details: then P-15 1 mg/ml in 100 mM phosphate buffer pH 7.4 overnight, compared with control wire not exposed to P-15
Method: In this Example, titanium wire was treated with tresylation and attachment of P-15, followed by exposure to fibroblasts. The titanium wire was washed thoroughly in ethanol, then soaking in a 0.1 N NaOH solution for 15 minutes, followed by washing 10× with DI H2O. The surface was then rinsed in full strength H2O2, then soaked in 50% H2O2 overnight. The wire was then placed in a tresylation reaction mixture of trifluoroethanesulfonyl chloride (200 ul), pyridine (1.0 ml), and tetrahydrofuran (20 ml) overnight, followed by washing in DI H2O. The surface was then placed in a solution containing P-15 1 mg/ml in 100 mM phosphate buffer, pH 7.4, overnight. Following this treatment, the wire was again rinsed in DI H2O, then placed in a cell culture which contained fibroblasts that had been fluorescently labeled for 24 hours.
As a control, a second titanium wire was treated identically to the first wire, described above, except that it was not exposed to P-15 before being exposed to the fluorescently-labeled cells.

For “G-T-P-G-P-Q-G-I-A-G-Q-R-G-V-V (GTPGPQGIAGQRGVV) [P-15, collagen receptor agonist]”, the “attachment of fluorescently labeled fibroblasts to the wire (photomicrographs, FIG. 1)” value was “increased fibroblast binding; also recorded: far more attached cells”.

From patent publication US20070009568A1, “METHODS FOR IMMOBILIZING MOLECULES ON SURFACES” (priority 2005, published 2007)
